Assay results reported in patent US9512107B2, “Therapeutically active compositions and their methods of use” (Agios Pharmaceuticals, Inc., priority 2012, dated 2016).

Columns and labels:
[1] = tested on: U87MG pLVX-IDH2 R140Q-neo cells; assay: U87MG pLVX-IDH2 R140Q-neo cell based assay, 2-HG in media by LC-MS at 48 hours; conditions: Homo sapiens, U-87 MG
Summary of the method: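 U87MG cells stably expressing IDH2 R140Q were seeded overnight, then exposed to compound at 0.2% final DMSO at 37 °C, 5% CO2. 2-HG in the medium was quantified by LC-MS at 48 h. Growth inhibition was read by CellTiter-Glo luminescence at 72 h.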

[2] = biological target: T1, IDH2 R140Q (Homo sapiens, UniProt P48735, R140Q); assay: IDH2 R140Q enzymatic assay (cofactor depletion, similar format); format: biochemical; conditions: read-out: Enz R140Q
T1 sequence (P48735 40-452 R140Q): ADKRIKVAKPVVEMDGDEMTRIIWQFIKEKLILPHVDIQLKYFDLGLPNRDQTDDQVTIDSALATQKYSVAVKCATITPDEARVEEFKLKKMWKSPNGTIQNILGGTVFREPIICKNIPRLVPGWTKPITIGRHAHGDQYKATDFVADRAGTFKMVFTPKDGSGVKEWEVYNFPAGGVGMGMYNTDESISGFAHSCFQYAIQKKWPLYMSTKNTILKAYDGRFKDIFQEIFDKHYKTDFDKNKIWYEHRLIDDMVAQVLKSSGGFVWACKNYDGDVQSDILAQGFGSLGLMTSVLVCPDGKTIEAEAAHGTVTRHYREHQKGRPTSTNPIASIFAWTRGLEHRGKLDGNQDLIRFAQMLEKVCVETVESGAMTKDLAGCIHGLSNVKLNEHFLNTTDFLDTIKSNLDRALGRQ

SMILES | IC50 [1] [nM] | IC50 [2] [nM]
Fc1ccc(Nc2nc(NC3COC3)nc(-c3cccc(C(F)(F)F)n3)n2)cn1 [Compound 380, N^2-(6-fluoropyridin-3-yl)-N^4-(oxetan-3-yl)-6-(6-(trifluoromethyl)pyridin-2-yl)-1,3,5-triazine-2,4-diamine] | 100 to 1000 | 100 to 1000
CC(C)Nc1nc(Nc2cncc(F)c2)nc(-c2cccc(Cl)n2)n1 [Compound 383, 6-(6-chloropyridin-2-yl)-N^2-(5-fluoropyridin-3-yl)-N^4-isopropyl-1,3,5-triazine-2,4-diamine] | < 100 | 100 to 1000
CC(C)Nc1nc(Nc2ccnc(F)c2)nc(-c2cccc(Cl)n2)n1 [Compound 384, 6-(6-chloropyridin-2-yl)-N^2-(2-fluoropyridin-4-yl)-N^4-isopropyl-1,3,5-triazine-2,4-diamine] | < 100 | 100 to 1000
CC(C)(O)CNc1nc(Nc2ccc(F)nc2)nc(-c2cccc(C(F)(F)F)n2)n1 [Compound 385, 1-(4-(6-fluoropyridin-3-ylamino)-6-(6-(trifluoromethyl)pyridin-2-yl)-1,3,5-triazin-2-ylamino)-2-methylpropan-2-ol] | 100 to 1000 | 1000 to 10000
CC(C)Nc1nc(Nc2ccc(F)nc2)nc(-c2ccccc2F)n1 [Compound 387, 6-(2-fluorophenyl)-N^2-(6-fluoropyridin-3-yl)-N^4-isopropyl-1,3,5-triazine-2,4-diamine] | < 100 | < 100
CC(C)(O)CNc1nc(Nc2ccc(F)nc2)nc(-c2cccc(Cl)n2)n1 [Compound 388, 1-(4-(6-chloropyridin-2-yl)-6-(6-fluoropyridin-3-ylamino)-1,3,5-triazin-2-ylamino)-2-methylpropan-2-ol] | 100 to 1000 | 1000 to 10000
CC(O)CNc1nc(Nc2ccnc(C(F)(F)F)c2)nc(-c2cccc(Cl)n2)n1 (centres unmarked) [Compound 389, 1-(4-(6-chloropyridin-2-yl)-6-(2-(trifluoromethyl)pyridin-4-ylamino)-1,3,5-triazin-2-ylamino)propan-2-ol] | < 100 | 1000 to 10000
CC(C)(O)CNc1nc(Nc2cncc(F)c2)nc(-c2cccc(Cl)n2)n1 [Compound 390, 1-(4-(6-chloropyridin-2-yl)-6-(5-fluoropyridin-3-ylamino)-1,3,5-triazin-2-ylamino)-2-methylpropan-2-ol] | 100 to 1000 | 1000 to 10000
CC(C)(O)CNc1nc(Nc2ccnc(C(F)(F)F)c2)nc(-c2cccc(Cl)n2)n1 [Compound 391, 1-(4-(6-chloropyridin-2-yl)-6-(2-(trifluoromethyl)pyridin-4-ylamino)-1,3,5-triazin-2-ylamino)-2-methylpropan-2-ol] | < 100 | 100 to 1000
CC(C)(O)CNc1nc(Nc2cncc(C(F)(F)F)c2)nc(-c2ccccc2F)n1 [Compound 392, 1-(4-(2-fluorophenyl)-6-(5-(trifluoromethyl)pyridin-3-ylamino)-1,3,5-triazin-2-ylamino)-2-methylpropan-2-ol] | < 100 | 100 to 1000
Fc1cc(Nc2nc(NC3COC3)nc(-c3cccc(Cl)n3)n2)ccn1 [Compound 393, 6-(6-chloropyridin-2-yl)-N^2-(2-fluoropyridin-4-yl)-N^4-(oxetan-3-yl)-1,3,5-triazine-2,4-diamine] | < 100 | 100 to 1000
CC(C)Nc1nc(Nc2cncc(C(F)(F)F)c2)nc(-c2cccc(Cl)n2)n1 [Compound 394, 6-(6-chloropyridin-2-yl)-N^2-isopropyl-N4-(5-(trifluoromethyl)pyridin-3-yl)-1,3,5-triazine-2,4-diamine] | < 100 | < 100
CC(C)Nc1nc(Nc2cccc(S(C)(=O)=O)c2)nc(-c2cccc(C(C)(F)F)n2)n1 [Compound 395, 6-(6-(1,1-difluoroethyl)pyridin-2-yl)-N^2-isopropyl-N^4-(3-(methylsulfonyl)phenyl)-1,3,5-triazine-2,4-diamine] | < 100 | 100 to 1000
CC(C)Nc1nc(Nc2ccnc(C(F)(F)F)c2)nc(-c2cccc(Cl)n2)n1 [Compound 396, 6-(6-chloropyridin-2-yl)-N^2-isopropyl-N4-(2-(trifluoromethyl)pyridin-4-yl)-1,3,5-triazine-2,4-diamine] | < 100 | 100 to 1000
CC(C)Nc1nc(Nc2cccc(S(C)(=O)=O)c2)nc(-c2cccc(C3CC3)n2)n1 [Compound 397, 6-(6-cyclopropylpyridin-2-yl)-N^2-isopropyl-N^4-(3-(methylsulfonyl)phenyl)-1,3,5-triazine-2,4-diamine] | 100 to 1000 | 100 to 1000
CC(C)Nc1nc(Nc2cc(F)cc(F)c2)nc(-c2cccc(N)n2)n1 [Compound 398, 6-(6-aminopyridin-2-yl)-N^2-(3,5-difluorophenyl)-N^4-isopropyl-1,3,5-triazine-2,4-diamine] | < 100 | < 100
CC(C)CNc1nc(Nc2cncc(F)c2)nc(-c2cccc(Cl)n2)n1 [Compound 399, 6-(6-chloropyridin-2-yl)-N^2-(5-fluoropyridin-3-yl)-N^4-isobutyl-1,3,5-triazine-2,4-diamine] | < 100 | 100 to 1000
CC(C)Nc1nc(Nc2cccc(S(=O)(=O)N3CCC3)c2)nc(-c2cccc(Cl)n2)n1 [Compound 400, N^2-(3-(azetidin-1-ylsulfonyl)phenyl)-6-(6-chloropyridin-2-yl)-N^4-isopropyl-1,3,5-triazine-2,4-diamine] | < 100 | 100 to 1000
CC(C)Nc1nc(Nc2cncc(C#N)c2)nc(-c2cccc(C(F)(F)F)n2)n1 [Compound 401, 5-(4-(isopropylamino)-6-(6-(trifluoromethyl)pyridin-2-yl)-1,3,5-triazin-2-ylamino)nicotinonitrile] | < 100 | 100 to 1000
Fc1cc(Nc2nc(NCC3CCCO3)nc(-c3cccc(C(F)(F)F)n3)n2)ccn1 (centres unmarked) [Compound 402, N^2-(2-fluoropyridin-4-yl)-N^4-((tetrahydrofuran-2-yl)methyl)-6-(6-(trifluoromethyl)pyridin-2-yl)-1,3,5-triazine-2,4-diamine] | < 100 | 100 to 1000

Results, then the compound that gave them:

IC50 [1] [nM] | IC50 [2] [nM] | SMILES
< 100 | 100 to 1000 | CC(C)(O)CNc1nc(Nc2cncc(C(F)(F)F)c2)nc(-c2cccc(Cl)n2)n1 [Compound 367, 1-(4-(6-chloropyridin-2-yl)-6-(5-(trifluoromethyl)pyridin-3-ylamino)-1,3,5-triazin-2-ylamino)-2-methylpropan-2-ol]
< 100 | 1000 to 10000 | CC(C)(O)CNc1nc(Nc2ccnc(F)c2)nc(-c2cccc(Cl)n2)n1 [Compound 368, 1-(4-(6-chloropyridin-2-yl)-6-(2-fluoropyridin-4-ylamino)-1,3,5-triazin-2-ylamino)-2-methylpropan-2-ol]
< 100 | < 100 | CC(C)Nc1nc(Nc2ccnc(C#N)c2)nc(-c2ccccc2F)n1 [Compound 369, 4-(4-(2-fluorophenyl)-6-(isopropylamino)-1,3,5-triazin-2-ylamino)picolinonitrile]
< 100 | < 100 | CC(C)Nc1nc(Nc2ccnc(C(F)(F)F)c2)nc(-c2ccccc2F)n1 [Compound 370, 6-(2-fluorophenyl)-N^2-isopropyl-N^4-(2-(trifluoromethyl)pyridin-4-yl)-1,3,5-triazine-2,4-diamine]
< 100 | < 100 | CC(C)Nc1nc(Nc2ccnc(F)c2)nc(-c2ccccc2F)n1 [Compound 371, 6-(2-fluorophenyl)-N^2-(2-fluoropyridin-4-yl)-N^4-isopropyl-1,3,5-triazine-2,4-diamine]
< 100 | 100 to 1000 | CC(C)Nc1nc(Nc2cccc(S(=O)(=O)N3CCC3)c2)nc(-c2ccccc2)n1 [Compound 376, N^2-(3-(azetidin-1-ylsulfonyl)phenyl)-N^4-isopropyl-6-phenyl-1,3,5-triazine-2,4-diamine]
< 100 | 100 to 1000 | Fc1cc(Nc2nc(NC3COC3)nc(-c3cccc(C(F)(F)F)n3)n2)ccn1 [Compound 377, N^2-(2-fluoropyridin-4-yl)-N^4-(oxetan-3-yl)-6-(6-(trifluoromethyl)pyridin-2-yl)-1,3,5-triazine-2,4-diamine]
< 100 | 100 to 1000 | FC(F)(F)c1cc(Nc2nc(NC3COC3)nc(-c3cccc(C(F)(F)F)n3)n2)ccn1 [Compound 378, N^2-(oxetan-3-yl)-6-(6-(trifluoromethyl)pyridin-2-yl)-N^4-(2-(trifluoromethyl)pyridin-4-yl)-1,3,5-triazine-2,4-diamine]
< 100 | 100 to 1000 | FC(F)(F)c1cncc(Nc2nc(NC3COC3)nc(-c3cccc(C(F)(F)F)n3)n2)c1 [Compound 379, N^2-(oxetan-3-yl)-6-(6-(trifluoromethyl)pyridin-2-yl)-N^4-(5-(trifluoromethyl)pyridin-3-yl)-1,3,5-triazine-2,4-diamine]
< 100 | 100 to 1000 | Fc1cncc(Nc2nc(NC3COC3)nc(-c3cccc(C(F)(F)F)n3)n2)c1 [Compound 381, N^2-(5-fluoropyridin-3-yl)-N^4-(oxetan-3-yl)-6-(6-(trifluoromethyl)pyridin-2-yl)-1,3,5-triazine-2,4-diamine]
< 100 | 100 to 1000 | CC(C)Nc1nc(Nc2cncc(C#N)c2)nc(-c2cccc(Cl)n2)n1 [Compound 382, 5-(4-(6-chloropyridin-2-yl)-6-(isopropylamino)-1,3,5-triazin-2-ylamino)nicotinonitrile]
